The text below walks through data of patent publication US10696637B2, “Nitrogen-containing heterocyclic compound” (FUJIFILM Corporation, priority 2015, dated 2020).

Bounds are passed on as bounds.

This test deals with CXCL10 production. In words: CXCL10 production inhibition test. Type of test: cell-based. As to conditions: Endothelial cell; test compound 0.1 μmol/L; human umbilical vein-derived endothelial cells; TNFα 10 ng/mL; supernatant 72 hours after stimulation; ELISA; read-out: Rate of inhibition of CXCL10 production. The method, then: (CXCL10 Production Inhibition Test)
0.5×10^4 or 1×10^4 human umbilical vein-derived endothelial cells were suspended in 100 μL of an EGM-2 BulletKit medium (without GA) or a Medium-200 medium supplemented with an EGM-2 SingleQuots kit (without GA), inoculated to a 96-well plate and cultured overnight. 100 μL of a solution of each test compound diluted with the same medium as that used in the inoculation was added to the cultured cells (final concentration of the test compound: 0.1 μmol/L). 1 hour thereafter, TNFα was added thereto at a final concentration of 10 ng/mL. 72 hours after the stimulation, the supernatant was recovered, and the amount of CXCL10 produced in the culture supernatant was determined using an ELISA kit (Peprotech, 900-109).
The rate of inhibition was calculated according to the following expression: Rate of inhibition (%)=100−(Amount of CXCL10 produced in the presence of the test compound/Amount of CXCL10 produced in the absence of the test compound)×100
Background: An ELISA detects its analyte on a solid surface through an enzyme-linked reagent.
On to `CCn1c(=O)cc(N2CCOCC2)c2cc(-n3c(-c4ccc(C(F)(F)F)cc4)c[nH]c3=O)ccc21` [Example 272, 1-ethyl-6-(2-oxo-5-(4-(trifluoromethyl)phenyl)-2,3-dihydro-1H-imidazol-1-yl)-4-(morpholin-4-yl)quinolin-2(1H)-one], for which the inhibition at 0.1 µM is at least 50%.
The same measure for `CCn1c(=O)cc(N2CCOCC2)c2cc(-n3c(-c4ccc(C)cc4)cn(C)c3=O)ccc21` [Example 273, 1-ethyl-6-(3-methyl-5-(4-methylphenyl)-2-oxo-2,3-dihydro-1H-imidazol-1-yl)-4-(morpholin-4-yl)quinolin-2(1H)-one]: at least 50%.
The figure for `CCn1c(=O)cc(N2CCOCC2)c2cc(-n3c(-c4ccc(C)cc4)c[nH]c3=O)ccc21` [Example 274] is at least 50%; for `CCn1c(=O)cc(C2CC2)c2cc(-n3c(-c4ccc(C)cc4)cn(C)c3=O)ccc21` [Example 275, 4-cyclopropyl-1-ethyl-6-(3-methyl-5-(4-methylphenyl)-2-oxo-2,3-dihydro-1H-imidazol-1-yl)quinolin-2(1H)-one] it is at least 50%.
Turning to `CCn1c(=O)cc(C2CC2)c2cc(-n3c(-c4ccc(C)cc4)c[nH]c3=O)ccc21` [Example 276, 4-cyclopropyl-1-ethyl-6-(5-(4-methylphenyl)-2-oxo-2,3-dihydro-1H-imidazol-1-yl)quinolin-2(1H)-one], the inhibition at 0.1 µM was at least 50%.
As for `CCn1c(=O)cc(C2CC2)c2cc(-c3cccnc3-c3ccccc3)ccc21` [Example 278, 4-cyclopropyl-1-ethyl-6-(2-phenylpyridin-3-yl)quinolin-2(1H)-one], the inhibition at 0.1 µM was at least 50%.
The same measure for `CCn1c(=O)cc(N2CCOCC2)c2cc(-c3cccnc3-c3ccccc3)ccc21` [Example 279, 1-ethyl-4-(morpholin-4-yl)-6-(2-phenylpyridin-3-yl)quinolin-2(1H)-one]: at least 50%; for `CCn1c(=O)cc(C2CC2)c2cc(N3C(=O)C(C)C(=O)N3c3ccccc3)ccc21` (stereo not shown) [Example 280, 1-(4-cyclopropyl-1-ethyl-2-oxo-1,2-dihydroquinolin-6-yl)-4-methyl-2-phenylpyrazolidine-3,5-dione]: at least 50%.
Turning to `CCC1C(=O)N(c2ccccc2)N(c2ccc3c(c2)c(C2CC2)cc(=O)n3CC)C1=O` (stereo not shown) [Example 281, 1-(4-cyclopropyl-1-ethyl-2-oxo-1,2-dihydroquinolin-6-yl)-4-ethyl-2-phenylmazolidine-3,5-dione], the inhibition at 0.1 µM was at least 50%.
The figure for `CCn1c(=O)cc(C2CC2)c2cc(-n3c(=O)cc(C)n3-c3ccccc3)ccc21` [Example 282a, 4-cyclopropyl-1-ethyl-6-(3-methyl-5-oxo-2-phenyl-2,5-dihydro-1H-pyrazol-1-yl)quinolin-2(1H)-one] is at least 50%.
The figure for `CCn1c(=O)cc(C2CC2)c2cc(-n3c(C)cc(=O)n3-c3ccccc3)ccc21` [Example 282b, 4-cyclopropyl-1-ethyl-6-(5-methyl-3-oxo-2-phenyl-2,3-dihydro-1H-pyrazol-1-yl)quinolin-2(1H)-one] is at least 50%; for `CCn1c(=O)cc(C2CC2)c2cc(-c3nc(C)[nH]c3-c3ccccc3)ccc21` [Example 283, 4-cyclopropyl-1-ethyl-6-(2-methyl-5-phenyl-1H-imidazol-4-yl)quinolin-2(1H)-one] it is at least 50%.
The figure for `CCn1c(=O)cc(C2CC2)c2cc(-c3nccnc3-c3ccccc3)ccc21` [Example 284, 4-cyclopropyl-1-ethyl-6-(3-phenylpyradin-2-yl)quinolin-2(1H)-one] is at least 50%; for `CCn1c(=O)cc(C2CCC(O)CC2)c2cc(C(=O)N(C)c3ccc(Cl)cc3)ccc21` (stereo not shown) [Example 286, N-(4-chlorophenyl)-1-ethyl-4-(4-hydroxycyclohexyl)-N-methyl-2-oxo-1,2-dihydroquinoline-6-carboxamide] it is at least 50%.
On to `CCn1c(=O)cc(C2CCN(C(C)=O)CC2)c2cc(C(=O)N(C)c3ccc(C)cc3)ccc21` [Example 290, 4-(1-acetylpiperidin-4-yl)-1-ethyl-N-methyl-N-(4-methylphenyl)-2-oxo-1,2-dihydroquinoline-6-carboxamide], for which the inhibition at 0.1 µM is at least 50%.
Take `CCn1c(=O)cc(C)c2cc(-c3cccnc3-c3ccccc3)ccc21` [Example 291, 1-ethyl-4-methyl-6-(2-phenylpyridin-3-yl)quinolin-2(1H)-one]: the inhibition at 0.1 µM is at least 50%.
The same measure for `CCn1c(=O)cc(C2CCN(C)CC2)c2cc(C(=O)N(C)c3ccc(C)c(F)c3)ccc21` [Example 292, 1-ethyl-N-(3-fluoro-4-methylphenyl)-N-methyl-4-(1-methylpiperidin-4-yl)-2-oxo-1,2-dihydroquinoline-6-carboxamide]: at least 50%; for `CCn1c(=O)cc(C2CCN(C)CC2)c2cc(C(=O)N(C)c3ccc(C)c(Cl)c3)ccc21` [Example 293, N-(3-chloro-4-methylphenyl)-1-ethyl-N-methyl-4-(1-methylpiperidin-4-yl)-2-oxo-1,2-dihydroquinoline-6-carboxamide]: at least 50%.
Regarding `CCn1c(=O)cc(C2CCN(C)CC2)c2cc(C(=O)N(C)c3ccc(C)c(C)c3)ccc21` [Example 294, N-(3,4-dimethylphenyl)-1-ethyl-N-methyl-4-(1-methylpiperidin-4-yl)-2-oxo-1,2-dihydroquinoline-6-carboxamide], the inhibition at 0.1 µM is at least 50%.

Broadly, the inhibition is how much of the control response was suppressed.
